Target: T1, Glucose-dependent insulinotropic receptor (Homo sapiens, UniProt Q8TDV5)
T1 sequence (Q8TDV5 whole entry): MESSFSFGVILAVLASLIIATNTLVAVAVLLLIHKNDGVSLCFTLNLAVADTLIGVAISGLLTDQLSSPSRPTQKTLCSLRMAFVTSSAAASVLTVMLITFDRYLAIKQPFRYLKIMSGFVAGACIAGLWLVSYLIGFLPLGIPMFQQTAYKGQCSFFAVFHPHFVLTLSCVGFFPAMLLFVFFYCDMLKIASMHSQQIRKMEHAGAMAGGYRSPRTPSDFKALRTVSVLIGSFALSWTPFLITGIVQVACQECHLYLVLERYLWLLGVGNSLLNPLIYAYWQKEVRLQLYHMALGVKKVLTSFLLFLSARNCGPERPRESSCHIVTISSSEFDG
Test: AlphaScreen cAMP Assay: MIN6 cells [Miyazaki J et al. Endocrinology. 1990 July; 127(1):126-32] were stably transfected with an expression vector for human GPR119 cDNA (Acc. No. NP-848566). Min-6/hGPR119 cells are cultured in DMEM, 10% FBS, 50 uM beta-mercaptoethanol, 0.3 mg/mL Geniticin, 2 mM GlutaMAX at 37 C. 5% CO2. For the assay, the cells are placed in Optiplates (white, 384-well, 160W-barcoded, TC, sterile with lid, Cat. No. #6007688 (Perkin Elmer); 10000 cells/well; 50 ul). The plates covered with lids are then incubated for 24 hours at 37 C./5% CO2.After the medium has been sucked out of the wells completely, 10 ul of the test compound are added, the compounds are diluted beforehand with stimulating buffer (140 mM NaCl, 3.6 mM KCl, 0.5 mM NaH2PO4, 0.5 mM MgSO4, 1.5 mM CaCl2, 10 mM Hepes, 5 mM NaHCO3; pH 7.4. 0.5 mM IBMX and 0.1% BSA, the final DMSO concentration is 1%). After 45 minutes' incubation at RT, the cAMP concentrations are determined using the AlphaScreen cAMP Assay.
Type: functional, cell-based

Row | EC50 | Compound
1 | > 10000 nM | CC[C@H]1CC(=O)NN=C1c1ccc2nc(-c3ccccc3)oc2c1
2 | 114 nM | CCOc1ccc(-c2nc3ccc(C4=NNC(=O)CC4CC)cc3o2)cc1 (stereo not drawn)
3 | 267 nM | CC1CC(=O)NN=C1c1ccc2nc(-c3ccsc3)oc2c1 (stereo not drawn)

From ChEMBL document CHEMBL3886244, “Benzoxazole- and tetrahydrobenzoxazole-substituted pyridazinones as GPR119 agonists” (2014)
